From patent US20090264306A1, “DNA METHYLATION BIOMARKERS IN LYMPHOID AND HEMATOPOIETIC MALIGNANCIES” (Curators of the University of Missouri, priority 2005, published 2009)

Test system: NHL lines RL, Daudi, DB, Raji, Granta 519 and Mec-1
Assay: Reactivation of methylated genes by DAC and TSA in NHL cell lines, real time RT-PCR
Type: cell-based, Human
Text: Cell Lines and Drug Treatments. Human NHL lines RL, Daudi, DB, Raji, Granta 519 and Mec-1 were maintained in RPMI 1640 media. The germinal center related cell line RL is derived from a patient with FL and the t(14,18) gene rearrangement (12), and Daudi and Raji cells are of germinal center derivation. The postgerminal center cell line DB is a DLBCL cell line that has undergone isotype switching (12). […] Granta 519 is an MCL cell line over-expressing cyclin D1 (13) and Mec-1 is a transformed B-CLL/SLL cell line (14). For gene reactivation experiments, cells were cultured in the presence of vehicle (PBS) or DAC (1.0 μM; medium changed every 24 h). After 4 days, cells were either harvested or further treated with TSA (1.0 μM) for 12 h and then harvested. Some cells were also treated with TSA alone for 12 h before harvest. Genomic DNA or total RNA was isolated using Qiagen™ kits (Qiagen, Valencia Calif.) and used for methylation and gene expression analysis, respectively.
Real-time RT-PCR. Total RNA (2 μg) was pre-treated with DNase I to remove potential DNA contaminants and reverse-transcribed in the presence of SuperScript III™ reverse transcriptase (Invitrogen, Carlsbad, Calif.). The generated cDNA was used for PCR amplification with the system described above. The Taqman™ probe and primer sets for real time PCR were purchased from Applied Biosystems (Foster City, Calif.). Separate parallel reactions were run for GAPDH cDNA using a series of diluted cDNA samples as templates to generate standardization curves. The mRNA levels were derived from the standardization curves and expressed as relative changes after normalization to those of GAPDH.

[1] = NHL cell lines, DAC 1.0 μM 4 days, TSA 1.0 μM 12 h, normalized to GAPDH, combination effect in most of the cell lines

With `Nc1ncn([C@H]2C[C@H](O)[C@@H](CO)O2)c(=O)n1` [DAC, 5-aza-2-deoxycytidine] as the molecule, how does the CCND1 expression (Granta 519 cell line, DAC alone) read?
Its CCND1 expression is “down regulated”.

And the “CYP27B1 gene expression after treatment” value [1]?
Its value is “weakly to moderately up-regulated”.

And the “RARβ2 gene expression after treatment” value [1]?
The value was “weakly to moderately up-regulated”.
